Data set [1] has as its target adenosine A1 receptor (A1R) (Homo sapiens (Human), UniProt P30542). Kind of data set: Inhibition of adenosine A1 receptor cAMP signaling pathway (HTRF cAMP, CHO-K1/A1R cells). Format: cell-based. As to conditions: Table 2; for IC50: CHO-K1/A1R cells, forskolin 10 μM, CPA 10 nM, cAMP HTRF; for IC50 ratio (A1R/A2aR): selectivity A1R over A2aR. An outline of the steps: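 CHO-K1/A1R cells (5×10^5 cells/ml) preincubated 30 min at room temperature with compound (100000–0.1 nM final) in HEPES/BSA buffer with rolipram and adenosine deaminase. They were then stimulated 30 min with 10 μM forskolin plus 10 nM CPA, and intracellular cAMP was measured by HTRF.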

A short description of data set [2]: Brain permeability in mice (plasma/brain concentration plus equilibrium dialysis). Format: in vivo. As to conditions: mouse, not told, po; female C57 mice, 20 mg/kg intragastric, 0.5 h after administration; read-out: Blood-brain permeability index (Kp-unbound). The procedure: The brain permeability of the compounds of the present invention in mice was determined by the following experimental method:
Four female C57 mice were maintained on a 12 hours light/12 hours dark cycle, in a constant temperature of 24±3° C. and a humidity of 50-60%, and had free access to food and water. The compounds were administered intragastrically to the mice after fasting overnight. The administration dosage was 20 mg/kg. The drug administration group was sacrificed after blood collection at 0.5 h after drug administration (collected blood volume: 0.5 ml). The blood sample was stored in heparinized tubes, and centrifuged for 10 minutes at 3500 rpm to separate the plasma, which was marked as plasma 1 and stored at −80° C. […]
The equilibrium dialysis tube of RED Device Inserts was inserted into a 96-well plate. […] The chromatographic peak area ratios of the total drug (plasma chamber) and the free drug (buffer chamber) to the internal standard were determined directly by the LC/MS/MS method established above respectively, and the free percent (fuplasma%) was calculated. […]
5.1 The drug concentrations in plasma 1 and brain tissue 1 of mice 0.5 h after drug administration were determined by the established LC/MS/MS method respectively, which were the total concentration (Ctotal, p and Ctotal, b); […]
On the technique in general: In equilibrium dialysis free small molecules cross a membrane that holds back macromolecules.

adenosine A1 receptor (A1R), sequence (P30542 whole entry): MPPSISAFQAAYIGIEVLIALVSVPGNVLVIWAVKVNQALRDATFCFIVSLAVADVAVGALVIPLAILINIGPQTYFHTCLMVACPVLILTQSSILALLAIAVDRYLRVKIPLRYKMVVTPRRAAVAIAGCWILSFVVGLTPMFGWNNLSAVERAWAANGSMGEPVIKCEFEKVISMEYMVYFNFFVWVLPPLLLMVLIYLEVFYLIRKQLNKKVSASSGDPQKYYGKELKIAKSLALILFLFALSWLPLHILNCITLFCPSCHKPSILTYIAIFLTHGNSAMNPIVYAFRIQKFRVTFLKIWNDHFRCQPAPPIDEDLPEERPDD

What is called IC50 is the concentration that gives 50% inhibition. A high value points to weaker potency. What is called Kp is the ratio of the level in a tissue or fluid to that in plasma or blood. For `Cc1cc(-c2c(-c3ccc(F)cc3F)nc(N)n3cnnc23)cc(C(F)(F)F)n1` [Example 18, 7-(2,4-Difluorophenyl)-8-(2-methyl-6-(trifluoromethyl)pyridin-4-yl)-[1,2,4]triazolo[4,3-c]pyrimidin-5-amine], in data set [1], the IC50 was 409 nM and the “IC50 ratio (A1R/A2aR)” value amounted to 103. Also, in data set [2], the concentration ratio (Kp) at 0.5 h is 0.01.
In the case of `Cc1cc(-c2c(-c3ccc(F)cc3F)nc(N)n3cnnc23)cc(C(F)F)n1` [Example 20, 8-(2-(Difluoromethyl)-6-methylpyridin-4-yl)-7-(2,4-difluorophenyl)-[1,2,4]triazolo[4,3-c]pyrimidin-5-amine], in data set [1], the 50% inhibitory concentration (IC50) is 519 nM and the “IC50 ratio (A1R/A2aR)” value is listed as 223. Further, in data set [2], the partition ratio (Kp) at 0.5 h amounted to 0.015.

For the origin of these results see patent US11312705B2, “Heteroaryl[4,3-C]pyrimidine-5-amine derivative, preparation method therefor, and medical uses thereof” (Jiangsu Hengrui Medicine Co., Ltd., priority 2017, dated 2022).
